From paper PMC3329801 (Nature Chemical Biology, 2011)

Test system: influenza virus NS1 protein levels
Assay type: cell-based

SMILES | viral protein levels in REDD1−/− cells (autophagy inhibitor treatment, Fig. S13) | viral protein levels in REDD1+/+ and REDD1−/− cells | influenza virus NS1 protein levels (Fig. S7)
CCN(CC)CCCC(C)Nc1ccnc2cc(Cl)ccc12 (stereo not drawn) [chloroquine] | did not affect viral protein levels |  | 
CO[C@H]1C[C@@H]2CC[C@@H](C)[C@@](O)(O2)C(=O)C(=O)N2CCCC[C@H]2C(=O)O[C@H]([C@H](C)C[C@@H]2CC[C@@H](O)[C@H](OC)C2)CC(=O)[C@H](C)/C=C(\C)[C@@H](O)[C@@H](OC)C(=O)[C@H](C)C[C@H](C)/C=C/C=C/C=C/1C [rapamycin] |  | down-regulated viral protein levels | reduced influenza virus NS1 protein levels
